Results from patent publication US20130252983A1, “ACTIVATING PHOSPHORYLATION SITE ON GLUTAMINASE C” (CORNELL UNIVERSITY, priority 2010, published 2013).

Assays:
[1] = system: NIH 3T3 cells expressing oncogenic Dbl; test: Dbl-induced cellular transformation (focus formation, growth in low serum, soft agar); format: cell-based, mouse
Description: FIGS. 1A-E illustrate that the small molecule 968 inhibits cellular transformation. […] Cells were fixed and stained with crystal violet for counting of foci. Right: 968 was serially diluted (10, 5, 2.5, and 1.25 μM) and evaluated for its ability to inhibit focus formation. […] After 6 days, the cells were counted. 100% represents the number of Dbl-transformed cells counted in the absence of 968 (27.5×10^4 cells). Data represent the average of 3 experiments (±s.d.). […] At the indicated times, the cells were counted. Data represent the average of 3 experiments (±s.d.).
(§1) FIGS. 2A-G illustrate effects of 968 on the transforming activity of constitutively active Rho GTPases and human breast cancer cells. […] Cells were scored after 14 days and plotted as the percentage of the total number of colonies greater than 50 μm in diameter. Data represent the average of 3 experiments (±s.d.). […] Data represent the average of 3 experiments (±s.d.). […] Data represent the average of 3 experiments (±s.d.). […] After 24 hours at 37° C., the migratory cells were fixed, stained with GIEMSA, and counted. Data represent the average of 3 experiments (±s.d.). […] Data represent the average of 3 experiments (±s.d.). […] Data represent the average of 3 experiments (±s.d.). […] Data represent the average of 3 experiments (±s.d.).
FIGS. 5A-C illustrate comparative abilities of 968 and other benzo[a]phenanthridinones to inhibit the transforming activity of oncogenic Dbl and H-Ras. […] Histograms show the relative levels of Dbl-induced focus formation for the different treatments, compared to Dbl-induced focus formation measured in the presence of DMSO (i.e. solvent control). Data represent the average of 3 experiments (mean±s.d.). […] Histograms show the relative levels of Ras(G12V)-induced focus formation measured for the different treatments, compared to Ras(G12V)-induced focus formation measured in the presence of DMSO (solvent control). Data represent the average of 3 experiments (mean±s.d.). FIG. 5C NIH 3T3 cells stably expressing H-Ras(G12V) that were cultured in DMEM supplemented with 1% calf serum, with the indicated amounts of 968. After 6 days, cells are trypsinized and counted. 100% represents the number of cells counted in the absence of 968, i.e. 26×10^4 cells. Data represent the average of 3 experiments (mean±s.d.).

[2] = system: NIH 3T3 cells stably expressing Cdc42(F28L), Rac(F28L), RhoC(F30L); test: Invasion through growth factor-reduced Matri-gel; format: cell-based, mouse; details: 10 μM, 24 hours
Description: as §1

SKBR3 cells = test: Soft-agar colony formation, SKBR3; format: cell-based, human; details: 10 μM
Description: as §1

MDA-MB231 cells = test: Growth to high density and in low serum, MDA-MB231; format: cell-based, human; details: 10 μM
Description: as §1

HMECs = test: Growth of normal human mammary epithelial cells; format: cell-based; details: 10 μM, MEGM complete medium, 6 days
[3] = system: GA activity of SKBR3 cells; test: GA activity in mitochondrial fractions of treated SKBR3 cells; format: cell-based, human; details: 10 μM, 48 hours
Description: 100%=620 moles of glutamine hydrolyzed per minute per mole of enzyme. Data represent the average of 3 experiments (±s.d.). […] Following precipitation of the beads and re-suspension, the samples were analyzed by Western blotting with anti-V5 antibody. […] Data represent the average of 3 experiments (±s.d.). […] Data represent the average of 3 experiments (±s.d.). […] Data represent the average of 3 experiments (±s.d.). FIG. 3E NIH 3T3 cells transiently expressing Dbl were assayed for focus formation in the presence of 10 μM 968 alone or together with 7 mM dimethyl α-ketoglutarate. […] 100%=680 nM glutamine hydrolyzed per minute per 10^5 cells. Data are the average of 3 experiments (±s.d.). […] 100%=750 nM glutamine hydrolyzed per minute per 10^5 cells. Data represent the average of 3 experiments (±s.d.).
FIGS. 4A-E illustrate the role of glutaminase C activity in cellular transformation. […] Data represent the average of 3 experiments (±s.d.). […] Data represent the average of 3 experiments (±s.d.). […] 100% represents the activity measured in untreated Dbl-transformed cells. The data represent the average of 2 experiments. […] 100% represents the activity measured in untreated SKBR3 cells. The data represent the average of 2 experiments. […] Data represent the average of 3 experiments (±s.d.).
FIGS. 11A-E illustrate the effects of different treatments on GA activity. […] The addition of Pi stimulated the GA activity in control 3T3 cells, Dbl-expressing cells, and Cdc42(F28L)-expressing cells by ˜6-fold, 2-fold, and 3-fold, respectively. 100% represents the Pi-stimulated activity measured for Dbl-transformed cells that were not treated with 968. Data is the average of 3 experiments (±s.d.). […] The addition of Pi stimulated the GA activity of HMECs, MDA-MB231 cells, and SKBR3 cells by ˜5-fold, 2-fold, and 1.4-fold, respectively. […] The data are plotted as the percentage of GA activity measured for untreated SKBR3 cells and represent the average of 2 experiments. […] 100% represents the Pi-stimulated activity measured for untreated Dbl-transformed cells. […]

SMILES: CN(C)c1ccc(C2Nc3ccc4ccccc4c3C3=C2C(=O)CC(C)(C)C3)cc1Br (stereo not drawn) [Compound 968, 5-[3-bromo-4-(dimethylamino)phenyl]-2,2-dimethyl-2,3,5,6-tetrahydrobenzo[a]]
- Dbl-induced colony formation in soft agar ([1]; 10 μM): blocked
- potency against Dbl-induced transformation compared to oncogenic H-Ras ([1]; focus formation in NIH 3T3 cells or growth in low serum): more potent inhibitor of Dbl-induced transformation
- concentration at which active in blocking Dbl-induced transformation ([1]; focus-forming assays or growth in low serum): 1 to 10 µM
- invasive activity [2]: inhibiting their invasive activity
- colony formation in soft agar (SKBR3 cells): inhibits the ability
- growth in low serum (MDA-MB231 cells; 1% fetal bovine serum): inhibits their growth
- growth to high density (MDA-MB231 cells; 10% fetal bovine serum, 6 days): inhibits their growth
- effect on growth of HMECs (HMECs): little effect
- basal GA activity [3]: sensitive to 968
